Tested on: patient with mitochondrial disease
Experiment: Clinical Example 2: administration to a patient with mitochondrial disease
Assay type: in vivo, human
Settings: agent dose in terms of L-arginine 0.5 g/kg/hr
Experimental: The agent for treating mitochondrial disease of the present invention was administered to a patient with mitochondrial disease at a dose in terms of L-arginine of 0.5 g/kg/hr.

`N=C(N)NCCC[C@H](N)C(=O)O` [L-arginine alone, L-arginine] was tested, and the “effects on the symptoms of the mitochondrial disease” value was “did not sufficiently exhibit” and the vomiting was “repetitive vomiting”.

Source: patent publication US20120322863A1, “PREVENTION OF AND COUNTERMEASURES AGAINST MITOCHONDRIAL DISEASE” (priority 2004, published 2012)
